Assay results published in US8980226B2, “Aerosolized fosfomycin/aminoglycoside combination for the treatment of bacterial respiratory infections” (Gilead Sciences, Inc., priority 2004, dated 2015).

Legend:
[1] = test system: E. coli ATCC 25922; experiment: Animal efficacy, rat lung infection, aerosol administration; format: in vivo; settings: aerosol administration of a 40 mg/mL solution of tobramycin alone (FIG. 18)
Procedure: The in vivo efficacy of aerosolized fosfomycin alone, tobramycin alone and combinations of fosfomycin plus tobramycin were evaluated against E. coli ATCC 25922 and P. aeruginosa ATCC 27853 in rat lungs. The bacterial inoculum used to establish the rat lung infections consisted of a mixture of bacteria and agarose beads. E. coli ATCC 25922 or P. aeruginosa ATCC 27853 was streaked onto blood agar plates and incubated for 18-24 hours at 35° C. Two to three colonies were inoculated into 10 mL Tryptic Soy Broth (hereafter referred to as TSB) and incubated statically at 35° C. for 1.5 to 2 hours. The culture was adjusted to an optical density of 0.1 (625 nm) in fresh TSB and then diluted 1:5 in TSB. One milliliter of bacterial suspension (approximately 10^7 CFU/mL) was added to 10 mL of a 2% noble agar solution and briefly mixed by inversion. The mixture was added to 150 mL of heavy white mineral oil equilibrated to 55° C. and stirred on ice for 5 minutes. The cooled suspension was poured into a 250 mL centrifuge tube and centrifuged at 3,000 rpm, 4° C., for 10 minutes. The supernatant was decanted off, the pellet resuspended in 25 mL of normal sterile saline, and transferred to a 50 mL conical centrifuge tube. […]
Bacterial killing was evaluated 18 hours after the last exposure. […] The lungs were removed aseptically, excess tissue removed and the lung weight determined. […]

[2] = cited from earlier work

NC[C@H]1O[C@H](O[C@H]2[C@H](O)[C@@H](O[C@H]3O[C@H](CO)[C@@H](O)[C@H](N)[C@H]3O)[C@H](N)C[C@@H]2N)[C@H](N)C[C@@H]1O [Tobramycin]
killing of E. coli in the rat lung [1]: 2 log 10
sputum levels ([2]; aerosol administration): ≥ 1000 µg/mL
oral absorption ([2]; in vivo, po): poorly absorbed orally
plasma half-life ([2]; parenteral administration): 1 to 2 h
